GI50 and TGI data for 17 compounds are collected here from PubChem BioAssay (NCI).

Holding throughout (assay): NCI anticancer screen, dose series, 48 h
Test [1] concerns BT-549 breast.
For test [2], the system named is HS 578T breast.
Test [3] concerns LOX IMVI melanoma.
For test [4], the system named is MDA-MB-231 breast.
The test system of test [5] is SNB-75 CNS.
Test [6] concerns KM12 colon.

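Interpolation was linear, between the two tested concentrations surrounding the appropriate level; five concentrations were tested over 48 hours in 96-well plates. GI50 marks 50% less growth. At the TGI there is no net growth.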

Consider `C[C@@]12CC=C3c4nc(Nc5cccc(O)c5)sc4CC[C@]3(C)[C@H]1CC[C@]1(C)C(=O)CC[C@@H]21`, for which the GI50 in test [1] was 1.61 µM; in test [2], 2.43 µM; in test [3], 1.67 µM; in test [4] it was 3 µM; in test [5] it was 3.19 µM. For the same compound, the TGI in test [1] is 6.47 µM; in test [2] it was > 100 µM; in test [3], 3.15 µM; in test [4], 15 µM; in test [5], > 100 µM.
Regarding `COc1cc(-c2ccc3c(c2)NC(=O)/C3=C\c2ccc[nH]2)ccc1O`, the GI50 in test [1] is 0.0968 µM; in test [2] it was 0.026 µM; in test [6], 0.0214 µM; in test [3], 0.0353 µM; in test [4], 0.0409 µM; in test [5] it was 0.0201 µM. For the same compound, the TGI in test [1], in test [2], in test [6], in test [3], in test [4] and in test [5] was > 50 µM throughout.
Take `CCOC(=O)[C@@H](N)CCC(=O)N[C@@H](CSCc1ccccc1)C(=O)N[C@@H](C(=O)OCC)c1ccccc1`: the GI50 in test [1] is 17.5 µM; in test [2], 16.6 µM; in test [6] it was 18.1 µM; in test [3] it was 16.7 µM; in test [4], 18.1 µM; in test [5] it was 13 µM. The TGI in test [1] came to 33 µM; in test [2] it was 47.3 µM; in test [6], 33.8 µM; in test [3] it was 32.1 µM; in test [4] it was 34.1 µM; in test [5], 26.4 µM.
In the case of `NP(=O)(Oc1c2occc2cc2ccc(=O)oc12)N(CCCl)CCCl` (stereo unspecified), the TGI in test [1], in test [2], in test [6], in test [3] and in test [4] was > 100 µM in each case.
On to `Cc1cc(C(=O)Nc2ncc(Cc3cccc(C(F)(F)F)c3)s2)c2ccccc2n1`, for which the GI50 in test [1] is 3.61 µM; in test [2], 2.41 µM; in test [6], 0.498 µM. Besides, the TGI in test [1], in test [2] and in test [6] was > 100 µM throughout.
Take `N#C/C(=C1C=C(Br)/C(=N\O)C=C\1Cl)c1cccc2ccccc12`: the TGI in test [1] was 22.1 µM; in test [2] it was 17.5 µM; in test [6], 19.4 µM; in test [3], > 100 µM; in test [4], 16.3 µM; in test [5] it was 0.79 µM.
For `COc1ccc(/C=C/c2ccnc3ccccc23)c(OC)c1`, the TGI in test [1], in test [2], in test [6], in test [3], in test [4] and in test [5] was > 10 µM throughout.
As to `CC(=O)CSCc1ccccn1`, the TGI is > 100 µM in test [1]; 7.23 µM in test [2]; > 100 µM in test [6]; > 100 µM in test [3]; > 100 µM in test [4]; 71.9 µM in test [5].
On to `COC(C(O)CO)C(O)C(O)C(=O)NNc1ccccc1` (stereo unspecified), for which the TGI in test [1], in test [2], in test [6], in test [3], in test [4] and in test [5] was > 100 µM throughout.
Regarding `Clc1nc(Cl)c(Cl)c(-c2ccccc2)n1`, the TGI was 7.81 µM in test [1]; > 100 µM in test [2]; 18 µM in test [6]; 5.59 µM in test [3]; 21.5 µM in test [5].
For `NCC1Nc2ccccc2[C@@H](O)C1O` (stereo partly specified), the TGI in test [2], in test [6], in test [3], in test [4] and in test [5] was > 100 µM each time.
As to `COc1ccccc1/C=C1\SC(=S)N(/C=C2\C(=O)Oc3ccccc3C2=O)C1=O`, the TGI in test [1] was 80.9 µM; in test [2], > 100 µM; in test [6], > 100 µM; in test [3], > 100 µM; in test [4], 47.7 µM; in test [5] it was 55.6 µM.
As for `COc1cc(/C=C/c2cc(/C=C/c3ccc(O)c(OC)c3)n(C(=O)Nc3ccc(F)c(Cl)c3)n2)ccc1O`, the GI50 was 0.921 µM in test [1]; 0.346 µM in test [2]; 0.31 µM in test [6]; 0.0792 µM in test [3]; 0.495 µM in test [4]. Moreover, the TGI in test [1] worked out at 7.98 µM; in test [2], 2.74 µM; in test [6], 1.15 µM; in test [3], 1.85 µM; in test [4] it was 3.85 µM.
For the compound `COc1cc2nc3cc([N+](=O)[O-])ccc3c(NCCCNCCO)c2cc1OC`, the GI50 was 0.297 µM in test [1]; 0.184 µM in test [2]; 0.285 µM in test [6]; 0.243 µM in test [3]; 0.13 µM in test [4]; 0.128 µM in test [5]. Further, the TGI in test [1] is 0.962 µM; in test [2] it was 0.612 µM; in test [6], 0.843 µM; in test [3], 0.664 µM; in test [4] it was 0.374 µM; in test [5], 0.26 µM.
`CC(C)(C)c1cc(Br)c(O)c(CN(Cc2cc(C(C)(C)C)cc(Br)c2O)C2CCCCC2)c1`: the TGI is 29.2 µM in test [1]; 28.4 µM in test [2]; 29.4 µM in test [6]; 29.8 µM in test [3]; 28.2 µM in test [4]; 20.9 µM in test [5].
Turning to `COc1ccc(Nc2c3ccccc3nc3occc23)cc1`, the GI50 in test [1] is 18.4 µM; in test [2], 6.23 µM; in test [6], 0.274 µM; in test [3] it was 6.14 µM; in test [4], 3.66 µM; in test [5], 9.4 µM. Besides, the TGI in test [1] is 45.8 µM; in test [2], > 67.6 µM; in test [6], 5.43 µM; in test [3] it was 59.9 µM; in test [4], 22.7 µM; in test [5], > 100 µM.
Consider `CN1c2ccc(Cl)cc2C(=O)NC1c1ccc([N+](=O)[O-])s1` (stereo unspecified), for which the TGI in test [1] was found to be 34.8 µM; in test [2] it was 34.2 µM; in test [6] it was 31.9 µM; in test [3], 28.8 µM; in test [4] it was 33.1 µM; in test [5] it was 35.4 µM.
